In experiment [1] the test system is immobilized peptide (SU2, SU5, TM2 or TM3-19). Description: ELISA anti-peptide titre during the immunization of cats. The conditions noted are these: individual cats immunized with KLH-coupled peptide; absorbance at 405 nm greater than 0.1. Format: in vivo. The protocol:
(§1) Groups of four cats 4½ months old are immunized subcutaneously with 120 μg of FIV peptide (approximately 250 μg of peptide coupled to KLH (keyhole limpet haemocyanin)), emulsified in complete Freund's adjuvant.
(§2) Four repeat immunizations are administered subcutaneously in an incomplete Freund's adjuvant, generally at intervals of 2-3 weeks, although the interval between the last 2 […] was 7 weeks.
(§3) The production on of antibodies is evaluated before the test by means of an ELISA using an immobilized peptide (SU2, SU5, TM2 or TM3-19) and immunoprecipitation. After the test, the seroconversion is monitored by an ELISA using immobilized envelope peptides and a recombinant FTV capsid protein.
(§4) The ELISA with the immobilized envelope peptides corresponding to the immunogenic domains SU2 and TM2 and with the immobilized recombinant p25 protein (FIV capsid protein) is carried out as described in Avraméas A. et al. (Res. Virol., 1993, 144, 209-218).
(§5) Microplates (Immunolon II, Dynatech) are coated with 0.5 μg/well for the peptides and with 0.1 μg/well for the p25 protein.
(§6) The tests are carried out in duplicate and the results are expressed as average values.
The anti-peptide titres before the test are expressed as the logarithm of the inverse of the last dilution of serum which gives an absorbance (at 405 nm) of greater than 0.1.
For orientation: An ELISA detects its analyte on a solid surface through an enzyme-linked reagent.

Another experiment has as its system FIV Petaluma strain. Description: Neutralization of infection of CrFK cells by sera of immunized cats. The class given is cell-based. The settings on record: for neutralizing antibodies in sera of immunized cats: CrFK cell line. On the procedure: The detection of antibodies neutralizing the infection of the CrFKs with the FIV Petaluma strain is carried out as described previously (Richardson J. et al., J. Gen. Virol., 1996, 77, 759-771).
To evaluate the function of the antibodies, the feline sera directed against the SU2 peptide are tested for their neutralizing value with respect to the infection of CrFK cells with the FIV Petaluma strain.

For a further experiment, the system named is FIV Wo isolate. In words: Plasmatic viral load by competitive RT-PCR after the virulence test. Format: in vivo, cats. The settings on record: for course of the primary infection (viral RNA in plasma, viral dissemination): after test with 10 CID50 of Wo isolate, relative to control cats, FIG. 3. On the procedure: as §1, §2
(§7) The cats are subjected to a virulence test, one week after the final immunization, by means of an intraperitoneal inoculation of 10 CID50 of FIV Wo isolate, one CID50 corresponding to the dose capable of infecting 50% of the cats.
The plasma is filtered (0.45 μm) and the RNA not associated with cells is extracted directly from the filtered plasma using the Viral RNA kit (Qiagene) and eluted in 50 μl of water according to the manufacturer's instructions, and the RNA is then divided into aliquots and stored at −80° C.
A conserved region of the FIV gag gene is selected as a target sequence for the reverse transcription of the competitive RNA and the overlapping PCR amplification.
For the synthesis of the cDNA, 2.5 μl of viral RNA are mixed with 2.5 μl containing different numbers of copies of competitive RNA; typically, the various samples of competitive RNA are prepared using 5 semi-logarithmic dilutions, straddling the number of copies estimated in the biological sample.
The RNA is denatured at 65° C. for 5 minutes and immediately placed on ice. The reagents for the reverse transcription (15 μl) are added.
The final reaction mixtures contain 0.3 U/ml of random hexanucleotides (sequences of 6 randomly aligned nucleotides which make it possible theoretically to amplify any RNA fragment) (Pharmcia), 0.5 mM of dNTP, 10 mM of DTT, 1× of commercial buffer (Gibco BRL) and 100 U of Superscript II (Glbco BRL), in a volume of 20 μl.
The reactions are first carried out at 25° C. for 10 minutes to promote the hybridization of the primers, and then at 42° C. for 50 minutes. The reverse transcriptase is inactivated by incubation at 95° C. for 5 minutes.
The highly conserved sequences are selected as primers. The complementary DNA is amplified by overlapping PCR, using:
For the first amplification, the PCR reagents (80 μl) are added as a mixture with 20 μl of cDNA.
The DNA is denatured at 94° C. for 3 minutes, subjected to 28 cycles of amplification (94° C. 30 s/55° C. 30 s/72° C. 30 s) and to an elongation at 72° C. for 7 minutes.
For the overlapping amplification, 2 μl of the product of the first amplification is transferred into 98 μl of reaction mixture containing 200 μM of dNTP, 1.5 mM of MgCl2, 0.5 μM of each internal primer, 1× of commercial buffer (Gibco BRL) and 0.25 U of Taq polymerase (Gibco BRL).
The DNA is denatured at 94° C. for 3 minutes, subjected to 28 cycles of amplification (94° C. 30 s/52° C. 30 s/72° C. 30 s) and to an elongation at 72° C. for 7 minutes.
The amplification products (10 μl ) are subjected to electrophoresis on 2.75% agarose gel.
Digital images of the gels stained with ethidium bromide are obtained using the Appligene Imager and the densitometry analyses are carried out with the Image NIH software. The density of the competitive product is adjusted as a function of the difference between the length of the native sequence and that of the competitive sequence.
The logarithm of the ratio:density or competitive product/density of the native product, is plotted as a function of the logarithm of the number of copies of competitive RNA added to each reaction.
The best adjustment is determined by the least-squares method and the number of copies of native RNA corresponds to the intersection of the axis of the Xs (Piatak M. Jr. et al., Biotechniques, 1993, 14, 70-80).
The cumulative area under the curve (Dawson J., Drug Information J., 1994, 28, 723-732) is calculated from graphs illustrating the ratio: copies of viral RNA/ml of plasma/time, and compared with the Mann-Whitney test.

In another experiment the test system is CD4+ T lymphocytes. Description: Counting of circulating CD4+ T lymphocytes by flow cytometry. The class given is in vivo, cats. The conditions noted are these: acute infection with FIV Wo, FIG. 2. The protocol: Counting of the CD4^+ T lymphocytes is carried out at regular intervals before the test, on the day of the test and at regular intervals during the acute infection.
The CD4^+ T lymphocytes are counted by flow cytometry, using monoclonal antibodies (Clinisciences).
To evaluate the effect of the immunization on the pathology associated with a primary infection, circulating CD4^+ lymphocytes are counted before and after the test with the FIV Wo strain.

Another experiment relates to TM2 envelope peptide. Description: Seroconversion ELISA after the virulence test, TM2 peptide. The class given is in vivo, cats. The settings on record: for Binding of the sera to TM2, 3 weeks after the virulence test / Binding of the sera to TM2, 4 weeks after the virulence test / Binding of the sera to TM2, 5 weeks after the virulence test: ELISA, seral dilution 1/25, individual cats; for response against the TM2 peptide: at 4 weeks after the test. On the procedure: as §7, §3, §4, §5, §6
After the test, the seroconversion against the envelope peptides and the p25 protein is evaluated at serum dilutions of 1/25 and 1/100, respectively.
The absorbance values (at 405 nm) are corrected by subtraction of the absorbance values obtained by binding with an immobilized control peptide.
The tests are normalized with reference to the binding of a mixture of serum from cats infected with FIV with a peptide representing the immunodominant domain of the FIV transmembrane glycoprotein (TM2) (Avraméas A. et al., Res. Virol., 1993, 144, 209-218).

Several values for one entry are separate records, joined by “and”; a condition that tells them apart may be missing. Equal entries are not always repeated. Entries after “also recorded” stand apart in the source; their conditions may differ. Ends that are not written are not given here.

For “KKGLQQLQEWEDWVGWIGN [TM3-19, 19-amino-acid fragment of the TM3 domain of the FIV Wo Env transmembrane glycoprotein (759-777)]”, in experiment [1], the “Anti-peptide titre, 1st injection” value is 4.71 logarithm of the inverse of the last dilution of serum and 5.01 logarithm of the inverse of the last dilution of serum and 5.31 logarithm of the inverse of the last dilution of serum; the “Anti-peptide titre, 2nd injection” value is 4.71 logarithm of the inverse of the last dilution of serum and 5.31 logarithm of the inverse of the last dilution of serum and 5.01 logarithm of the inverse of the last dilution of serum and 3.20 logarithm of the inverse of the last dilution of serum; the “Anti-peptide titre, Day of the test” value is 4.40 logarithm of the inverse of the last dilution of serum (3×) and 4.71 logarithm of the inverse of the last dilution of serum. The “neutralizing antibodies in sera of immunized cats” value with FIV Petaluma strain is on record as “do not neutralize”. In the experiment on FIV Wo isolate (3 weeks after the test with 10 CID50 of FIV Wo, individual cats), the “Plasmatic viraemia, RT-PCR” value is “undetectable (2×) and 1.19 × 10^7 copies of viral RNA/ml of plasma and 5.56 × 10^6 copies of viral RNA/ml of plasma”. Further, in the experiment on FIV Wo isolate, the “course of the primary infection (viral RNA in plasma, viral dissemination)” value was “generally different from that observed with the control cats; also recorded: the infection in the other 3 cats of this group appears in a retarded manner; also recorded: significantly retards the viral dissemination”. In addition, in the experiment with FIV Wo isolate (area under the cumulative curve at 3 weeks and 4 weeks after the test), the “reduction in the viral load relative to the control cats, Mann-Whitney test p” value is on record as 0.02. Further, the “detection of plasmatic viraemia during the measurement period” value in the experiment on FIV Wo isolate (cat 348) is listed as “not possible to detect a plasmatic viraemia in one of the cats (348)”. In addition, the “number of copies of viral RNA observed in plasma (maximum)” value in the experiment with FIV Wo isolate (primary infection, measurement period) is reported as ≤ 3.1×10^6 copies/ml. In addition, the “number of CD4+ lymphocytes after the infection” value in the experiment with CD4+ T lymphocytes is “does not show a large decrease”. In addition, in the experiment with TM2 envelope peptide, the “Binding of the sera to TM2, 3 weeks after the virulence test” value is 0 optical density (3×) and 1.2 optical density; the “Binding of the sera to TM2, 4 weeks after the virulence test” value was 0.1 optical density and 2.4 optical density and 0 optical density and 0.5 optical density; the “Binding of the sera to TM2, 5 weeks after the virulence test” value was 1.9 optical density and 2.5 optical density and 0 optical density and 2.3 optical density; the “response against the TM2 peptide” value is “all but one (347) of the cats immunized with the TM3-19 peptide show a weak or undetectable response”.

On to “SU2: peptide of the SU2 domain of the FIV surface envelope glycoprotein, SEQ ID NO: 2, used as immunogen (RAISSWKQRNRWEWRPD)”, for which, in experiment [1], the “Anti-peptide titre, 1st injection” value was 4.40 logarithm of the inverse of the last dilution of serum and 5.31 logarithm of the inverse of the last dilution of serum and 4.71 logarithm of the inverse of the last dilution of serum and 5.01 logarithm of the inverse of the last dilution of serum; the “Anti-peptide titre, 2nd injection” value was 4.71 logarithm of the inverse of the last dilution of serum and 5.01 logarithm of the inverse of the last dilution of serum (2×) and 5.31 logarithm of the inverse of the last dilution of serum; the “Anti-peptide titre, Day of the test” value is 5.31 logarithm of the inverse of the last dilution of serum and 4.71 logarithm of the inverse of the last dilution of serum and 5.61 logarithm of the inverse of the last dilution of serum and 5.01 logarithm of the inverse of the last dilution of serum. The “neutralizing antibodies in sera of immunized cats” value in the experiment on FIV Petaluma strain is given as “Only one cat (327) immunized with the SU2 peptide develops neutralizing antibodies”. For the same substance, in the experiment with FIV Petaluma strain (cat 327, CrFK cells), the “final dilution of serum which reduces the infection by at least 50%” value is on record as 1/160. Besides, in the experiment with FIV Wo isolate, the “course of the primary infection (viral RNA in plasma, viral dissemination)” value was “does not appear to modify the course of the primary infection; also recorded: do not modify the course of the infection”. The “number of CD4+ lymphocytes after the infection” value in the experiment on CD4+ T lymphocytes is listed as “gradual reduction”. In addition, in the experiment with TM2 envelope peptide, the “Binding of the sera to TM2, 3 weeks after the virulence test” value is recorded as 0 optical density; the “Binding of the sera to TM2, 4 weeks after the virulence test” value was 1.3 optical density and 2.2 optical density and 2.1 optical density and 1.4 optical density; the “Binding of the sera to TM2, 5 weeks after the virulence test” value is 2.1 optical density (2×) and 2.3 optical density and 2.5 optical density; the “response against the TM2 peptide” value was “developed a large response”.
